Literature values in patent US20040053283A1, “Gene 4” (priority 2000, published 2004).

How the values were obtained:
[1] = tested on: rat stroke model (middle ear cerebral artery occlusion); conditions: in vivo
[2] = tested on: tissue culture model of cerebral ischemia

## O=C(O)CCC(CP(=O)(O)O)C(=O)O (stereo not shown) [2-PNPA, 2-(phosphonomethyl)pentanedioic acid]
[1]; rat stroke model (middle ear cerebral artery occlusion)
  neuronal protection: high degree of neuronal protection
[1]; rat stroke model, at levels that produced a high degree of neuronal protection
  tolerability: well tolerated
[2]; 10 μM, tissue culture model of cerebral ischemia
  protection from cellular injury: 85%
[2]; even one hour after the ischemia
  protective effect: significant
